The subject of one data set is fecal bile acids. The data set is described as follows: Fecal bile acid excretion in ZDF rats after oral 264W94. Type of data set: in vivo, ZDF rat. The note with it: 0.001-10 mg/kg oral gavage twice a day, 2 weeks. The method, then:
(§1) Male Zucker diabetic fatty rats (ZDF/GmiCrl-fa/fa) were purchased from Charles River (Raleigh, N.C.) and housed under controlled conditions (12:12 light-dark cycle, 24° C. and 50% relative humidity) with free access to rodent food (Purina 5008, Harlan Teklad, Indianapolis, Ind.). All rats arrived at seven weeks of age (±3 days). After a one-week acclimation period, rats were anesthetized with isoflurane (Abbott Laboratories, IL) and tail-vein blood samples were collected at 9 am without fasting. Blood glucose levels were measured using a glucometer (Bayer, Leverkusen, Germany). In order to ensure balanced treatment groups, ZDF rats were assigned to six treatment groups based upon baseline glucose: vehicle (0.5% HPMC, 0.1% Tween80) and five doses of 264W94 (0.001, 0.01, 0.1, 1, 10 mg/kg). All treatments were given via oral gavage twice a day and animals were followed for two weeks with blood samples collected from tail vein at the end of each week at 9 am without fasting. Fecal samples were collected for 24 hours during the second week of treatment.
(§2) Non-esterified fatty acids (NEFA), bile acids, and bile acids in fecal extraction were measured using the Olympus AU640 clinical chemistry analyzer (Beckman Coulter, Irving, Tex.).

Data set [1] relates to plasma lipase, plasma amylase. The data set is described as follows: ZDF rat 3-week study: exocrine pancreas function (plasma lipase, amylase). Type of data set: in vivo. To be noted: ZDF rats; for Plasma Amylase: Week 3; for Plasma Lipase: Week 3, higher doses. Here is the method:
(§3) Animals were acclimatized for 5-7 days after arrival.
(§4) Key efficacy, metabolic and liver function parameters were assessed: Total 24 hr fecal and total serum bile acid concentrations; Plasma ALP, ALT, AST, BUN, creatinine; Fasting glucose and insulin concentrations, glucose/insulin ratio, blood percent HbA1c and Oral Glucose Tolerance Test (glucose excursion, insulin, GLP-1); Plasma GLP-1, GLP-2 and FGF21 concentrations.

A further data set concerns plasma ALP, ASAT, ALAT. Kind of data set: ZDF rat 3-week study: liver function (ALP, ASAT, ALAT). It is filed as in vivo. To be noted: ZDF rats, twice daily oral gavage, Week 3. Here is the method:
as §3, §4

Data set [2] has as its system fecal excretion of [14C]taurocholic acid (TCA). Kind of data set: Fecal excretion of [14C]taurocholic acid in Syrian hamster after LUM002. To be noted: nonfasted Golden Syrian hamsters, oral gavage, 24 h feces. Type of data set: in vivo. The method, then:
To study the effect of LUM002 on fecal excretion of [^14C]taurocholic acid (TCA) in the Syrian hamster in vivo, [^14C]TCA was administered intraperitoneally 1 hour before dosing the test compound. Each animal was dosed with […] [^14C]TCA. LUM002 was dosed by oral gavage (5 mL/kg per administration) in either 5% (v/v) Solutol with 0.5% hydroxyethylcellulose (HEC) or 0.5% HEC alone. The first half of dose of test compound/vehicle was given 1 hour after [^14C]TCA injection, followed by the second half of dose 7 hours after the first dose of test compound/vehicle. Feces were collected for 24 hours after [^14C]TCA administration and aliquots from feces were combusted for determination of [^14C] excretion.
The ED200 (dose which doubles the fecal excretion of [^14C] label vs. control from dose response curve, including 95% Confidence interval) was calculated from a dose response curve.

The next data set has as its system total serum bile acids. Kind of data set: ZDF rat 3-week study: plasma total serum bile acids. Type of data set: in vivo. To be noted: ZDF rats, twice daily oral gavage, Week 3. Here is the method:
as §3, §4

The next data set has as its system plasma bile acids. Kind of data set: Plasma bile acid concentrations in ZDF rats, oral gavage twice a day for 2 weeks. Type of data set: in vivo, ZDF rat. Here is the method:
as §1, with “All treatments were given via oral gavage twice a day and animals were followed for two weeks with blood samples collected from tail vein at the end of each week at 9 am without fasting. Fecal samples were collected for 24 hours during the second week of treatment.” left out
as §2
Male ZDF rats (n=4) were administered vehicle, SC-435 (1, 10 or 30 mg/kg) or LUM002 (0.3, 1, 3, 10 or 30 mg/kg) by oral gavage twice a day for 2 weeks. Plasma bile acid levels were determined at the end of the second week. […] Data are expressed as mean values ±SEM.

Data set [3] can be described thus: Pharmacokinetics of LUM002 single 100 mg oral solution in healthy male subjects. Type of data set: in vivo, human. The method, then:
Healthy male subjects, from 18 to 45 years of age, were given a single oral solution dose (100 mg in 100 mL) of LUM002 under fasting conditions. Blood samples for the determination of LUM002 plasma concentration were collected predose and 0.5, 1, 2, 3, 4, 5, 6, 8, 10, 12, 16, 24, and 48 hours after treatment administration. Plasma was obtained by centrifugation and […] processed for protein precipitation, centrifuged again to remove the precipitate and the supernatant prepared for LC-MS/MS analysis. LUM002 plasma concentrations were determined using a validated liquid chromatography tandem mass spectrometry (LC-MS/MS) assay with a lower limit of quantification (LLOQ) of 0.1 ng/mL. LUM002 plasma concentrations were used to determine the following pharmacokinetic parameters using standard noncompartmental techniques: Cmax, Tmax, AUCslast, and, if applicable due to the low-absorbable characteristics of LUM002, also AUC, AUC0-24 and t1/2z.

In another data set the test system is GLP-2. Kind of data set: ZDF rat study: GLP-2 in plasma. Type of data set: in vivo. The note with it: non-fasted ZDF rats, 2 weeks treatment, higher doses. Here is the method:
as §3, §4

Another data set deals with Hemoglobin A1c (HbA1c). Kind of data set: ZDF rat 3-week study: baseline-corrected percent HbA1c. It is filed as in vivo. The note with it: ZDF rats, twice daily oral gavage. Here is the method:
as §3, §4

Data set [4] is described as follows: Pharmacokinetics of [14C]LUM002 after single PO or IV administration to rats. Type of data set: in vivo, Sprague Dawley Rat. The method, then:
To each rat either a single oral (PO; 20 mg/kg free acid) or a single intravenous (IV; 2 mg/kg free acid) dose of [^14C]LUM002 was administered. For PO and IV administration, the test substance was prepared with the adequate amount of water to reach a solution with a concentration of approximately 4 mg/g (PO) and 1 mg/g (IV). Oral administration was a gavage using a stomach tube and IV administration was a bolus injection into the tail vein. Exact doses administered to animals were calculated according to syringe weights.
The doses of radioactivity actually administered were determined by using standards prior to and after treatment of the animals. Blood—Animals were anaesthetized (Isoflurane) for blood sampling (3 animals/time point) and then euthanized by […]. Blood samples (maximal volume from each animal approx. 8 mL) were withdrawn from the abdominal aorta into containers containing a small amount of lithium heparin. and samples were centrifuged for 2 minutes at 1540 g. Aliquots (100 μL) of blood were used for hematocrit determination. Animals for the control groups (male and/or female) were used as predose animals for sampling of untreated biological samples (blood and plasma or liver, myocardium, kidneys only from male control animals). Plasma—To obtain plasma, blood samples were centrifuged for 10 minutes and stored cooled before final division.
Bioanalytical analysis −50 μL of plasma samples were placed into an 1.5 mL reaction tube. 5 μL methanol was added to each sample. For protein precipitation, 100 μL of the internal standard working solution (100 ng/mL of benzyl-13C6-LUM002 in acetonitrile) and 50 μL acetonitrile were added. In case of double blank samples, pure acetonitrile was added. Tubes were sealed and mixed thoroughly for 10 seconds. The tubes were centrifuged for 5 minutes at ≧3000 g. 50 μL of the clear supernatant was transferred into an autoinjector vial and were diluted with 50 μL deionized water. Analysis of samples was performed by using LC-MS/MS (injection volume 50-75 μL) with a lower limit of quantification in the assay of 1 ng/mL for LUM002.

For data set [5], the system named is liver injury after partial bile duct ligation. The data set is described as follows: Partial bile duct ligation (pBDL) in rats: liver histology and cholangiocyte mitotic figures. It is filed as in vivo, rat. The note with it: for Total number of cholangiocytes in 50 fields / Total number of mitotic figures in 50 fields: pBDL rat, 10 mg/kg once daily oral gavage. The method, then:
Rats were anesthetized with isoflurane, the common bile duct exposed by midline laparotomy and a short length of PE-10 tubing placed parallel to the bile duct. A ligature of 4-0 silk suture was tied tightly around the duct and tubing after which the tubing was removed resulting in constriction of the duct lumen without complete obstruction SC-435 was administered to the test group by once daily oral gavage (10 mg/kg) starting one day prior to pBDL surgery.
All animals were euthanized on Day 14. The liver was collected from all animals and preserved in 10% formalin. The preserved livers from all animals were processed, embedded in paraffin, sectioned and stained with hematoxylin and eosin (H&E). The resulting slides were evaluated. Microscopic findings, when present, were graded subjectively on a scale of 0 to 4 according to the intensity and extent of change, where 0=finding not present; 1=minimal; 2=mild; 3=moderate and 4=marked. Additionally, quantitation of cholangiocyte (bile duct epithelial cells) mitotic nuclei was accomplished by counting the number of mitotic cells and the total number of cholangiocytes in 50 randomly selected high-powered (40× objective) fields.

Where “and” joins values, the source holds several entries; their conditions need not be identical. Identical values can stand only once.

In the case of `CCCC[C@]1(CC)CS(=O)(=O)c2cc(OC)c(OC)cc2[C@@H](c2ccccc2)N1` [Compound 264W94], in the data set with fecal bile acids, the “elevation of fecal bile acid concentrations vs vehicle treated rats” value is reported as “up to 6.5 fold”.

As to `CCCC[C@]1(CC)CS(=O)(=O)c2ccc(N(C)C)cc2[C@@H](c2cccc(NC(=O)N[C@@H]3O[C@H](COS(=O)(=O)[O-])[C@@H](O)[C@H](OCc4ccccc4)[C@H]3O)c2)[C@H]1O.CCO.O.[K+]` [LUM002, potassium((2R,3R,4S,5R,6R)-4-benzyloxy-6-{3-[3-((3S,4R,5R)-3-butyl-7-dimethylamino-3-ethyl-4-hydroxy-1,1-dioxo-2,3,4,5-tetrahydro-1H-benzo[b]thiepin-5-yl)-phenyl]-ureido}-3,5-dihydroxy-tetrahydro-pyran-2-ylmethyl)sulphate ethanolate, hydrate], in data set [1], the “Plasma Amylase” value is “Neither LUM002 nor SC-435 cause a statistically significant changes” and the “Plasma Lipase” value was “statistically significant reductions”. In the data set on plasma ALP, ASAT, ALAT, the “Plasma Alkaline Phosphatase (ALP)” value is “significant reductions” and the “Plasma Aspartate Aminotransferase (ASAT)” value was “statistically significant reduction”. Also, the “effect on fecal excretion of bile acids” value in data set [2] was “significantly increased”. In addition, the “Plasma Total Serum Bile Acids Concentrations” value in the data set with total serum bile acids is reported as “statistically significant reductions”. The “Plasma bile acid levels” value in the data set on plasma bile acids (ZDF rats, 0.3, 1, 3, 10 or 30 mg/kg twice a day) is listed as “decreased”. The compound also had a t1/2 in data set [3] (100 mg oral solution, fasting, individual subject) of 3.39 h. For the same compound, the dose systemically absorbed in data set [3] (healthy male subjects, 100 mg) is “Less than 1%”. Besides, in the data set on GLP-2, the GLP-2 in plasma entry is on record as “significant elevations”. In addition, the “Baseline-corrected Percent Hemoglobin A1c (HbA1c)” value in the data set with Hemoglobin A1c (HbA1c) is listed as “significant dose-dependent reductions”. This compound came in with an AUCinf in [4] (male rat, IV bolus 2 mg/kg free acid) of 0.9 ng·h/mL. The “plasma exposure, 3 female and 1 male animal out of 72” value in [4] (rat, PO 20 mg/kg, 2 or 4 h after administration) lay in the range of 1 to 5 ng/mL. Also, the “plasma exposure, all other animals” value in data set [4] (rat, PO 20 mg/kg, limit of quantitation 1 ng/mL) is listed as less than 1 ng/mL. The dose systemically absorbed in data set [4] (rats) is reported as “Less than 2%”.

Turning to `CCCCC1(CCCC)CS(=O)(=O)c2ccc(N(C)C)cc2[C@@H](c2ccc(OCCCC[N+]34CCN(CC3)CC4)cc2)[C@H]1O.CS(=O)(=O)[O-]` [SC-435, 1-[4-[4-[(4R,5R)-3,3-dibutyl-7-(dimethylamino)-2,3,4,5-tetrahydro-4-hydroxy-1,1-dioxido-1-benzothiepin-5-yl]phenoxy]butyl]-4-aza-1-azoniabicyclo[2.2.2]octane methanesulfonate salt], in data set [1], the “Plasma Amylase” value was “Neither LUM002 nor SC-435 cause a statistically significant changes” and the “Plasma Lipase” value is recorded as “statistically significant reductions”. The “Plasma Alkaline Phosphatase (ALP)” value in the data set on plasma ALP, ASAT, ALAT is on record as “significant reductions”. For the same compound, in the data set on total serum bile acids, the “Plasma Total Serum Bile Acids Concentrations” value is reported as “statistically significant reductions”. In addition, the “Plasma bile acid levels” value with plasma bile acids (ZDF rats, 1, 10 or 30 mg/kg twice a day) was “decreased”. Also, in [5] (pBDL rat livers, Day 14), the Hepatocyte necrosis result was “not present”; the “bile duct proliferation, mixed inflammatory cell infiltration, spindle cell proliferation vs untreated rat livers” value is “reduced incidence and intensity”. In data set [5] (pBDL rat livers, by 14 days), the “hepatic necrosis and inflammatory cell infiltration” value was “less hepatic necrosis and inflammatory cell infiltration”. Also, in [5] (Day 14, AVG), the “Total number of cholangiocytes in 50 fields” value is 533 and the “Total number of mitotic figures in 50 fields” value is 0. Besides, the “Total number of mitotic figures in 50 fields” value in data set [5] (Day 14, individual rats) came to 0. The “Total number of cholangiocytes in 50 fields” value in data set [5] (Day 14, individual rats, methanesulfonate salt, 10 mg/kg) is 662 and 404. Moreover, the “mitotic figures in livers” value in data set [5] (pBDL rats, 14 days post surgery) is “No mitotic figures were observed”. For the same compound, in data set [5] (partial bile duct ligation, rats), the “morphologic features of liver injury associated cholestasis” value was “appeared to ameliorate or inhibit”. Besides, the GLP-2 in plasma result in the data set with GLP-2 was “significant elevations”. For the same compound, the “Baseline-corrected Percent Hemoglobin A1c (HbA1c)” value in the data set with Hemoglobin A1c (HbA1c) is “significant dose-dependent reductions”.

Source of the values: US20140275090A1, “BILE ACID RECYCLING INHIBITORS FOR TREATMENT OF PRIMARY SCLEROSING CHOLANGITIS AND INFLAMMATORY BOWEL DISEASE” (Lumena Pharmaceuticals, Inc., priority 2013, published 2014).
